# From PMC12169608, “Peptidomimetic Phenoxymethyl Ketone Warheads as Potent Dual-Mode Inhibitors against SARS-CoV‑2 M^pro and Cathepsin” (Journal of Medicinal Chemistry, 2025)
# Read-outs that look alike come from different tables or passages of the source.
# Legend:
# thrombin = target: T1, thrombin (Homo sapiens, UniProt P00734); assay: Protease panel: thrombin; format: biochemical
# T1 construct: preincubated with thrombin (10 nM, Sigma); purchased Sigma-Aldrich
# [1] = Human liver microsomal stability; conditions: microsomes, pH 7.4
# in vitro [2] = conditions: mouse, hepatocytes; for hepatocyte CLint at 2 h, 2 µM: CLint (mouse hepatocytes)
# Calpain-1 = target: T2, Calpain-1 (Homo sapiens, UniProt P07384); assay: Protease panel: Calpain-1; format: biochemical
# T2 construct: erythrocytes; tissue Eurofins Discovery (assay service); host or cells: human erythrocytes
# T2 sequence (P07384 1-714): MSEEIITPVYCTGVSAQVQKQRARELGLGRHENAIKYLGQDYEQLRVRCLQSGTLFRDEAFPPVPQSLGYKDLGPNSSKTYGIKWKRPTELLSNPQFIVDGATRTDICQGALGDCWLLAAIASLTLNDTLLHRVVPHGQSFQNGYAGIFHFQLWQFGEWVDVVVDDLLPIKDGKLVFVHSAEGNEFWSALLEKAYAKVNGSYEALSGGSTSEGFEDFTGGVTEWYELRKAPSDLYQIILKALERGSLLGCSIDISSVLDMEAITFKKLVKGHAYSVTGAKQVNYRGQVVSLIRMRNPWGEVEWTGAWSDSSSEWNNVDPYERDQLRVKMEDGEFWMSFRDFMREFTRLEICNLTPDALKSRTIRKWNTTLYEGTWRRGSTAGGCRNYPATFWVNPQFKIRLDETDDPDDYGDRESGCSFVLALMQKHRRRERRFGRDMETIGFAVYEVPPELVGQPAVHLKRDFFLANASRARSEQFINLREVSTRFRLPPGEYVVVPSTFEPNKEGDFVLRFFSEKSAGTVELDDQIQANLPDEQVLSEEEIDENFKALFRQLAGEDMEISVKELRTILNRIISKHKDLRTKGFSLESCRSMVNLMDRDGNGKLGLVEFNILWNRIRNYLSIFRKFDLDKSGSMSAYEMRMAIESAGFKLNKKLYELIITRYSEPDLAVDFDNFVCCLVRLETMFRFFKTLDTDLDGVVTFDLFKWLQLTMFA
# T2 sequence (P04632 1-268 partner): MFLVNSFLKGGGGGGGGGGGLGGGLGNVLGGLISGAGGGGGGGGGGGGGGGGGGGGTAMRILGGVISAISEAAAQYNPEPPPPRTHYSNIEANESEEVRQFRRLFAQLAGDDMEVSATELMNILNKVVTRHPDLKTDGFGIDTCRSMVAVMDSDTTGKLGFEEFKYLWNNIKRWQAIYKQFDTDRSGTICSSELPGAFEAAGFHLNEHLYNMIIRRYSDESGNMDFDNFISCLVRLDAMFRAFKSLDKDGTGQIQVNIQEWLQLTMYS
# [3] = microsomes, 10 µM, pH 7.4
# physchem = conditions: pH 7.4
# in vitro [4] = conditions: human, hepatocytes
# MERS-CoV = assay: microbe, parasite or virus in culture; format: cell-based; conditions: Middle East respiratory syndrome-related coronavirus, Huh-7, read-out: pEC50 (MERS-CoV CPE reduction assay) (converted)
# [5] = Mouse liver microsomal stability; conditions: microsomes, pH 7.4
# in vitro [6] = conditions: mouse, microsomes, pH 7.4
# [7] = Hamster liver microsomal stability; conditions: microsomes, pH 7.4
# [8] = Human hepatocyte stability; conditions: cryopreserved hepatocytes
# SARS-CoV = assay: microbe, parasite or virus in culture; format: cell-based; conditions: Severe acute respiratory syndrome coronavirus, read-out: pEC50 (SARS-CoV CPE reduction assay) (converted)
# SARS-CoV-2 M^pro = SARS-CoV-2 M^pro (Severe acute respiratory syndrome coronavirus 2, UniProt P0DTD1); assay: biochemical; format: biochemical; conditions: read-out: M^pro biochemical assay pIC50 (converted)
# [9] = target: mouse cathepsin B (mCTSB) (Mus musculus, UniProt P10605); assay: mCTSB biochemical assay; conditions: read-out: pIC50 (mouse CTSB) (converted)
# Chain of mouse cathepsin B (mCTSB) (P10605 80-339): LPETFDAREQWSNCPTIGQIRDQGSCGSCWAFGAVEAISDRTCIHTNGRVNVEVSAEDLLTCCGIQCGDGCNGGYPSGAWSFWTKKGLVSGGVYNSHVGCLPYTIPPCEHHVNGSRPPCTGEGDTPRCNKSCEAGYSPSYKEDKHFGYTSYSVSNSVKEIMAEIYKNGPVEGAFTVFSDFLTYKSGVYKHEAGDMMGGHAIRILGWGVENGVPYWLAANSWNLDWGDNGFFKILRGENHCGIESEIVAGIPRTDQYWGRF
Compound,inhibition at 10 µM (thrombin),half-life [1],"hepatocyte CLint at 2 h, 2 µM (in vitro [2])",inhibition at 10 µM (Calpain-1),solubility kinetic at 24 h (physchem),"hepatocyte CLint at 2 h, 2 µM (in vitro [4])",half-life at 1 µM [7],"half-life at 2 h, 2 µM [8]",also measured
"COc1cccc2[nH]c(C(=O)N[C@@H](Cc3cccc(F)c3)C(=O)N[C@@H](C[C@@H]3CCNC3=O)C(=O)COc3c(F)c(F)c(CO)c(F)c3F)cc12 [compound 1, N-((S)-3-(3-Fluorophenyl)-1-oxo-1-(((S)-3-oxo-1-((S)-2-oxopyrrolidin-3-yl)-4-(2,3,5,6-tetrafluoro-4-(hydroxymethyl)phenoxy)butan-2-yl)amino)propan-2-yl)-4-methoxy-1H-indole-2-carboxamide]",0.2 ± 1.1%,4.04 min,186 µL/min/1e6 cells,3%,18 µM,12.5 µL/min/1e6 cells,0.58 min,55.5 min,"Peak area (%) by LCMS, mouse liver microsomal stability assay of 1 ([3]; 0 h): 100%; Peak area (%) by LCMS, mouse liver microsomal stability assay of 1 ([3]; 5 min): 86.9%; Peak area (%) by LCMS, mouse liver microsomal stability assay of 1 ([3]; 0.25 h): 67.9%; Peak area (%) by LCMS, mouse liver microsomal stability assay of 1 ([3]; 0.5 h): 48.7%; Peak area (%) by LCMS, mouse liver microsomal stability assay of 1 ([3]; 0.75 h): 35.8%; Peak area (%) by LCMS, mouse liver microsomal stability assay of 1 ([3]; 1 h): 32.6%; EC50 (MERS-CoV): 0.00525 µM; half-life at 1 µM [5]: 1.18 min; microsomal CLint at 1 µM (in vitro [6]): 586 µL/min/mg; remaining at 1 h, 1 µM (in vitro [6]): 0%; EC50 (SARS-CoV): 0.302 µM; IC50 (SARS-CoV-2 M^pro): 0.00245 µM"
"CC(C)(O)c1c(F)c(F)c(OCC(=O)[C@H](C[C@@H]2CCNC2=O)NC(=O)[C@@H]2[C@@H]3[C@H](CN2C(=O)[C@@H](NC(=O)C(F)(F)F)C(C)(C)C)C3(C)C)c(F)c1F [compound 14, (1R,2S,5S)-3-((S)-3,3-Dimethyl-2-(2,2,2-trifluoroacetamido)butanoyl)-6,6-dimethyl-N-((S)-3-oxo-1-((S)-2-oxopyrrolidin-3-yl)-4-(2,3,5,6-tetrafluoro-4-(2-hydroxypropan-2-yl)phenoxy)butan-2-yl)-3-azabicyclo[3.1.0]hexane-2-carboxamide]",4.1 ± 1.5%,35 min,112 µL/min/1e6 cells,-7%,77.2 µM,6.6 µL/min/1e6 cells,1.73 min,105 min,IC50 [9]: 5.01 µM; hepatocyte CLint at 1 µM (in vitro [2]; CLint (mouse hepatocytes + ritonavir 4:1)): 26.7 µL/min/1e6 cells
